Assay results published in ChEMBL document CHEMBL3046407, “Toxicity of monoterpenes against larvae and adults of Colorado potato beetle, Leptinotarsa decemlineata Say (Coleoptera: Chrysomelidae)” (2007).

Experiments:
[1] = test system: Leptinotarsa decemlineata; assay: Insecticidal activity against first-instar larval stage of Leptinotarsa decemlineata infested potato leaves assessed as mortality at 20 mg after 12 hr relative to control; format: functional
[2] = test system: Leptinotarsa decemlineata; assay: Insecticidal activity against third-instar larval stage of Leptinotarsa decemlineata infested potato leaves assessed as mortality at 10 mg after 12 hr relative to control; format: functional
[3] = test system: Leptinotarsa decemlineata; format: functional, Instar larval stage
[4] = test system: Leptinotarsa decemlineata; assay: Insecticidal activity against adult Leptinotarsa decemlineata infested potato leaves assessed as mortality at 10 mg after 24 hr relative to control; format: functional
[5] = test system: Leptinotarsa decemlineata; assay: Insecticidal activity against third-instar larval stage of Leptinotarsa decemlineata infested potato leaves assessed as mortality at 20 mg after 24 hr relative to control; format: functional
[6] = test system: Leptinotarsa decemlineata; assay: Insecticidal activity against adult Leptinotarsa decemlineata infested potato leaves assessed as mortality at 20 mg after 96 hr relative to control; format: functional
[7] = test system: Leptinotarsa decemlineata; assay: Insecticidal activity against third-instar larval stage of Leptinotarsa decemlineata infested potato leaves assessed as mortality at 20 mg after 12 hr relative to control; format: functional
[8] = test system: Leptinotarsa decemlineata; assay: Insecticidal activity against adult Leptinotarsa decemlineata infested potato leaves assessed as mortality at 20 mg after 12 hr relative to control; format: functional
[9] = test system: Leptinotarsa decemlineata; assay: Insecticidal activity against adult Leptinotarsa decemlineata infested potato leaves assessed as mortality at 10 mg after 12 hr relative to control; format: functional
[10] = test system: Leptinotarsa decemlineata; assay: Insecticidal activity against third-instar larval stage of Leptinotarsa decemlineata infested potato leaves assessed as mortality at 10 mg after 24 hr relative to control; format: functional
[11] = test system: Leptinotarsa decemlineata; assay: Insecticidal activity against adult Leptinotarsa decemlineata infested potato leaves assessed as mortality at 10 mg after 48 hr relative to control; format: functional
[12] = test system: Leptinotarsa decemlineata; assay: Insecticidal activity against first-instar larval stage of Leptinotarsa decemlineata infested potato leaves assessed as mortality at 10 mg after 12 hr relative to control; format: functional
[13] = test system: Leptinotarsa decemlineata; format: functional, Instar larval stage; remark: listed apart in the source
[14] = test system: Leptinotarsa decemlineata; assay: Insecticidal activity against adult Leptinotarsa decemlineata infested potato leaves assessed as mortality at 10 mg after 96 hr relative to control; format: functional
[15] = test system: Leptinotarsa decemlineata; format: functional, Instar larval stage; remark: listed apart in the source
[16] = test system: Leptinotarsa decemlineata; format: functional, Instar larval stage; remark: listed apart in the source
[17] = test system: Leptinotarsa decemlineata; assay: Insecticidal activity against first-instar larval stage of Leptinotarsa decemlineata infested potato leaves assessed as mortality at 20 mg after 48 hr relative to control; format: functional
[18] = test system: Leptinotarsa decemlineata; assay: Insecticidal activity against adult Leptinotarsa decemlineata infested potato leaves assessed as mortality at 20 mg after 24 hr relative to control; format: functional
[19] = test system: Leptinotarsa decemlineata; assay: Insecticidal activity against first-instar larval stage of Leptinotarsa decemlineata infested potato leaves assessed as mortality at 20 mg after 24 hr relative to control; format: functional
[20] = test system: Leptinotarsa decemlineata; assay: Insecticidal activity against first-instar larval stage of Leptinotarsa decemlineata infested potato leaves assessed as mortality at 10 mg after 96 hr relative to control; format: functional
[21] = test system: Leptinotarsa decemlineata; assay: Insecticidal activity against first-instar larval stage of Leptinotarsa decemlineata infested potato leaves assessed as mortality at 10 mg after 48 hr relative to control; format: functional
[22] = test system: Leptinotarsa decemlineata; assay: Insecticidal activity against first-instar larval stage of Leptinotarsa decemlineata infested potato leaves assessed as mortality at 10 mg after 24 hr relative to control; format: functional
[23] = test system: Leptinotarsa decemlineata; assay: Insecticidal activity against first-instar larval stage of Leptinotarsa decemlineata infested potato leaves assessed as mortality at 20 mg after 96 hr relative to control; format: functional
[24] = test system: Leptinotarsa decemlineata; assay: Insecticidal activity against adult Leptinotarsa decemlineata infested potato leaves assessed as mortality at 20 mg after 48 hr relative to control; format: functional
[25] = test system: Leptinotarsa decemlineata; assay: Insecticidal activity against first-instar larval stage of Leptinotarsa decemlineata infested potato leaves assessed as mortality at 10 ul after 24 hr relative to control; format: functional
[26] = test system: Leptinotarsa decemlineata; assay: Insecticidal activity against adult Leptinotarsa decemlineata infested potato leaves assessed as mortality at 20 ul after 12 hr relative to control; format: functional
[27] = test system: Leptinotarsa decemlineata; assay: Insecticidal activity against third-instar larval stage of Leptinotarsa decemlineata infested potato leaves assessed as mortality at 20 ul after 12 hr relative to control; format: functional
[28] = test system: Leptinotarsa decemlineata; assay: Insecticidal activity against second-instar larval stage of Leptinotarsa decemlineata infested potato leaves assessed as mortality at 10 ul after 12 hr relative to control; format: functional
[29] = test system: Leptinotarsa decemlineata; assay: Insecticidal activity against adult Leptinotarsa decemlineata infested potato leaves assessed as mortality at 20 ul after 24 hr relative to control; format: functional
[30] = test system: Leptinotarsa decemlineata; assay: Insecticidal activity against second-instar larval stage of Leptinotarsa decemlineata infested potato leaves assessed as mortality at 10 ul after 96 hr (reference value: 3.3 +/- 3.3%); format: functional
[31] = test system: Leptinotarsa decemlineata; assay: Insecticidal activity against first-instar larval stage of Leptinotarsa decemlineata infested potato leaves assessed as mortality at 20 ul after 48 hr relative to control; format: functional
[32] = test system: Leptinotarsa decemlineata; assay: Insecticidal activity against third-instar larval stage of Leptinotarsa decemlineata infested potato leaves assessed as mortality at 10 ul after 48 hr (reference value: 3.3 +/- 3.3%); format: functional
[33] = test system: Leptinotarsa decemlineata; assay: Insecticidal activity against first-instar larval stage of Leptinotarsa decemlineata infested potato leaves assessed as mortality at 10 ul after 96 hr relative to control; format: functional
[34] = test system: Leptinotarsa decemlineata; assay: Insecticidal activity against second-instar larval stage of Leptinotarsa decemlineata infested potato leaves assessed as mortality at 20 ul after 96 hr (reference value: 3.3 +/- 3.3%); format: functional
[35] = test system: Leptinotarsa decemlineata; assay: Insecticidal activity against second-instar larval stage of Leptinotarsa decemlineata infested potato leaves assessed as mortality at 20 ul after 48 hr (reference value: 3.3 +/- 3.3%); format: functional
[36] = test system: Leptinotarsa decemlineata; assay: Insecticidal activity against adult Leptinotarsa decemlineata infested potato leaves assessed as mortality at 10 ul after 48 hr relative to control; format: functional
[37] = test system: Leptinotarsa decemlineata; assay: Insecticidal activity against first-instar larval stage of Leptinotarsa decemlineata infested potato leaves assessed as mortality at 10 ul after 12 hr relative to control; format: functional
[38] = test system: Leptinotarsa decemlineata; assay: Insecticidal activity against third-instar larval stage of Leptinotarsa decemlineata infested potato leaves assessed as mortality at 20 ul after 24 hr relative to control; format: functional
[39] = test system: Leptinotarsa decemlineata; assay: Insecticidal activity against third-instar larval stage of Leptinotarsa decemlineata infested potato leaves assessed as mortality at 20 ul after 48 hr (reference value: 3.3 +/- 3.3%); format: functional
[40] = test system: Leptinotarsa decemlineata; assay: Insecticidal activity against first-instar larval stage of Leptinotarsa decemlineata infested potato leaves assessed as mortality at 20 ul after 96 hr relative to control; format: functional
[41] = test system: Leptinotarsa decemlineata; assay: Insecticidal activity against second-instar larval stage of Leptinotarsa decemlineata infested potato leaves assessed as mortality at 10 ul after 48 hr (reference value: 3.3 +/- 3.3%); format: functional
[42] = test system: Leptinotarsa decemlineata; assay: Insecticidal activity against adult Leptinotarsa decemlineata infested potato leaves assessed as mortality at 10 ul after 24 hr relative to control; format: functional
[43] = test system: Leptinotarsa decemlineata; assay: Insecticidal activity against adult Leptinotarsa decemlineata infested potato leaves assessed as mortality at 20 ul after 48 hr relative to control; format: functional
[44] = test system: Leptinotarsa decemlineata; assay: Insecticidal activity against first-instar larval stage of Leptinotarsa decemlineata infested potato leaves assessed as mortality at 20 ul after 12 hr relative to control; format: functional
[45] = test system: Leptinotarsa decemlineata; assay: Insecticidal activity against third-instar larval stage of Leptinotarsa decemlineata infested potato leaves assessed as mortality at 10 ul after 96 hr (reference value: 3.3 +/- 3.3%); format: functional
[46] = test system: Leptinotarsa decemlineata; assay: Insecticidal activity against third-instar larval stage of Leptinotarsa decemlineata infested potato leaves assessed as mortality at 10 ul after 24 hr relative to control; format: functional
[47] = test system: Leptinotarsa decemlineata; assay: Insecticidal activity against second-instar larval stage of Leptinotarsa decemlineata infested potato leaves assessed as mortality at 20 ul after 12 hr relative to control; format: functional
[48] = test system: Leptinotarsa decemlineata; assay: Insecticidal activity against third-instar larval stage of Leptinotarsa decemlineata infested potato leaves assessed as mortality at 10 ul after 12 hr relative to control; format: functional
[49] = test system: Leptinotarsa decemlineata; assay: Insecticidal activity against second-instar larval stage of Leptinotarsa decemlineata infested potato leaves assessed as mortality at 10 ul after 24 hr (reference value: 3.3 +/- 3.3%); format: functional
[50] = test system: Leptinotarsa decemlineata; assay: Insecticidal activity against third-instar larval stage of Leptinotarsa decemlineata infested potato leaves assessed as mortality at 20 ul after 96 hr (reference value: 3.3 +/- 3.3%); format: functional
[51] = test system: Leptinotarsa decemlineata; assay: Insecticidal activity against adult Leptinotarsa decemlineata infested potato leaves assessed as mortality at 10 ul after 96 hr relative to control; format: functional
[52] = test system: Leptinotarsa decemlineata; assay: Insecticidal activity against adult Leptinotarsa decemlineata infested potato leaves assessed as mortality at 10 ul after 12 hr relative to control; format: functional
[53] = test system: Leptinotarsa decemlineata; assay: Insecticidal activity against adult Leptinotarsa decemlineata infested potato leaves assessed as mortality at 20 ul after 96 hr relative to control; format: functional
[54] = test system: Leptinotarsa decemlineata; assay: Insecticidal activity against second-instar larval stage of Leptinotarsa decemlineata infested potato leaves assessed as mortality at 20 ul after 24 hr (reference value: 3.3 +/- 3.3%); format: functional
[55] = test system: Leptinotarsa decemlineata; assay: Insecticidal activity against first-instar larval stage of Leptinotarsa decemlineata infested potato leaves assessed as mortality at 10 ul after 48 hr relative to control; format: functional
[56] = test system: Leptinotarsa decemlineata; assay: Insecticidal activity against first-instar larval stage of Leptinotarsa decemlineata infested potato leaves assessed as mortality at 20 ul after 24 hr relative to control; format: functional

C=C1C2CCC(C2)C1(C)C (stereo unspecified) [CAMPHENE]
mortality [1]: 13.3% | mortality [2]: 0% | mortality [3]: 50% | mortality [4]: 13.3% | mortality [5]: 43.3% | mortality [6]: 76.7% | mortality [7]: 16.7% | mortality [8]: 30% | mortality [9]: 6.7% | mortality [10]: 0% | mortality [11]: 13.3% | mortality [12]: 0% | mortality [13]: 10% | mortality [14]: 13.3% | mortality [15]: 6.7% | mortality [16]: 46.7% | mortality [17]: 23.3% | mortality [18]: 73.3% | mortality [19]: 23.3% | mortality [20]: 10% | mortality [21]: 6.7% | mortality [22]: 0% | mortality [23]: 26.7% | mortality [24]: 76.7%

CC1=CCC(C(C)C)=CC1 [GAMMA-TERPINENE]
mortality [25]: 100% | mortality [26]: 46.7% | mortality [27]: 10% | mortality [28]: 90% | mortality [29]: 96.7% | mortality [30]: 100% | mortality [31]: 100% | mortality [32]: 30% | mortality [33]: 100% | mortality [34]: 100% | mortality [35]: 100% | mortality [36]: 66.7% | mortality [37]: 43.3% | mortality [38]: 16.7% | mortality [39]: 33.3% | mortality [40]: 100% | mortality [41]: 100% | mortality [42]: 40% | mortality [43]: 100% | mortality [44]: 100% | mortality [45]: 33.3% | mortality [46]: 26.7% | mortality [47]: 100% | mortality [48]: 16.7% | mortality [49]: 100% | mortality [50]: 50% | mortality [51]: 90% | mortality [52]: 20% | mortality [53]: 100% | mortality [54]: 100% | mortality [55]: 100% | mortality [56]: 100%
